The text below walks through data of publication PMC11489250, “Optimized methods for measuring competitive binding of chemical substances to thyroid hormone distributor proteins transthyretin and thyroxine binding globulin” (Archives of Toxicology, 2024).

The target in assay [1] is T1, thyroxine-binding globulin (TBG) (Homo sapiens, UniProt P05543).
T1 construct: purchased Bio-rad Laboratories, Inc. (Veenendaal, The Netherlands)
T1 sequence (P05543 21-415): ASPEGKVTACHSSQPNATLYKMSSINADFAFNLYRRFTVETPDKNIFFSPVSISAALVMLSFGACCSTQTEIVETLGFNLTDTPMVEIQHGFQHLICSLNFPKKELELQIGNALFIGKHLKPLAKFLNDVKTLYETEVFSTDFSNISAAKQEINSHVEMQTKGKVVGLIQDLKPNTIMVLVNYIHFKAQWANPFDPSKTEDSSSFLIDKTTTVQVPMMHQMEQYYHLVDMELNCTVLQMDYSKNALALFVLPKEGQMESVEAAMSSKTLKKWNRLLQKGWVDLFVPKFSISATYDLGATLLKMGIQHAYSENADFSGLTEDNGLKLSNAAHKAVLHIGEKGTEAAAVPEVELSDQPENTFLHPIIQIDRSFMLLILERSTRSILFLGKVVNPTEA
Put plainly: Competitive TBG-binding assay with FITC-T4 (fluorescence polarization readout). Here is the method: Prepared plates were first shaken for 5 min and then incubated for 15 min at room temperature before being analysed by the microplate reader at FP mode (CLARIOstar Plus, BMG LABTECH).
Accordingly, dilution series of all compounds were prepared in DMSO. First, 24 µL Tris–HCl buffer was pipetted to the wells, followed by 1 µL of the compound stock solution. […] Solvent (DMSO) concentrations in all conditions were 1%. The plates were shaken for 5 min on a plate shaker, followed by an incubation for 15 min at room temperature.
The adjusted polarization was set to a reference value of 35 mP. The adjustment gain values ranged from 1900 to 2200. The plate layout of TBG-binding assay is provided in Supplementary Information file (Section 4).
For the competitive TBG-binding experiments, concentration–response curves were fitted:2 r=rmin+rmax-rmin/1+IC50/X^HillSlope with rmin and rmax being the minimum and maximum anisotropy values, respectively. X is the concentration of added competitor. Equations that were used for the calculation of the ICX and Ki values in the TTR-binding assays (Supplementary Information, Section 3) were also used to determine the ICX and Ki values in TBG-binding assays without any changes, respectively. The single Kd, IC20, IC50 and Ki were determined based on replicates (n) in each experiment, and then the average and confidence intervals were determined based on the Kd, IC20, IC50 and Ki values from sperate experiments (N).
Alternatively, another approach to determine ICX, Kd and Ki values based on a theoretical model of ligand–protein binding biochemistry was taken as described in detail in the Supplementary Information file (Section 5). For this approach, R was used to fit the model to the data. The results obtained from the two approaches were compared in Section 3.4.
S5.2 Ki and IC50 estimation

Assay [2] concerns the target T2, Human TTR (Homo sapiens, UniProt P02766).
T2 construct: Transthyretin (prealbumin, TTR) >95% from human plasma; purchased Sigma Aldrich (Zwijndrecht, The Netherlands); host or cells: human plasma
The experiment in a line: Optimized competitive TTR-binding assay with FITC-T4 (fluorescence intensity readout). Particulars: for T4EQ concentration (TTR binding): T4EQi = highest human blood concentration x T4-REPi; for Contribution to T4EQ concentration (TTR binding): mixture of highest human blood concentrations of five model compounds; for IC20: read-out: TTR IC20. How it is done:
All TTR-binding experiments were performed in black 96-well polystyrene nonbinding plates. Experimental wells and background wells were prepared in triplicate per plate. […] Fluorescence intensity (FI) was measured at λex = 485 ± 20 nm and λem = 528 ± 20 nm (CLARIOstar Plus microplate reader, BMG LABTECH).
To test the effect of the change in temperature and incubation time, a saturation experiment (N = 3, n = 3) was performed in Tris–HCl buffer (0.1 M Tris (Thermo Scientific, Rockford, USA), 0.1 M NaCl (Merck KGaA, Darmstadt, Germany), 1 mM EDTA (VWR International, B.V. Amsterdam, The Netherlands); pH 8.0). […] Two 96-well plates were prepared at the same time. After shaking for 5 min on a plate shaker, one prepared plate was incubated on ice (at 4 °C) and another plate was incubated at room temperature (22 °C). For both plates the fluorescence was measured at different time points: 5 min, 15 min, 60 min and 120 min.
First, 48 µL Tris–HCl buffer (pH 8.0) was pipetted to the wells, followed by 2 µL of the compound (in DMSO). […] Final solvent (DMSO) concentrations in all conditions amounted to 1%. All plates were shaken for 5 min on a plate shaker, followed by an incubation for 15 min at room temperature. The standard operation procedure (SOP) is provided in Supplementary Information file (Section 3).
Calculations of the ICX, Kd and Ki values of TTR-binding assays are described in the Supplementary Information file (Section 3).
3.7.5 The competitive TTR binding screening assay
3.7.8 Processing data to determine IC50 and calculate Ki value

Assay [3] concerns the target T2, Human TTR. To be noted: FITC-T4 110 nM, human TTR 30 nM, 4 °C, 2 h; ref Hamers et al. [2020]; read-out: TTR literature Ki; cited from earlier work.
Assay [4] has as its target TTR. Also on record: method as in Ren et al. [2016]. Particulars: ref Ren et al. [2016]; read-out: TTR literature Ki; cited from earlier work.
In assay [5] the target is TBG. Particulars: calculated by Ki = 1/binding constant; ref Cao et al. [2011]; read-out: TBG literature Ki; cited from earlier work.
The target in assay [6] is TTR. Particulars: calculated by Ki = 1/binding constant; ref Cao et al. [2011]; read-out: TTR literature Ki; cited from earlier work.
For assay [7], the system named is TBG. Also on record: method as in Marchesini et al. [2006]. Particulars: highest concentration tested 10 µM; ref Marchesini et al. [2006]; cited from earlier work.
For another assay, the system named is Recombinant TTR. Details: method as in Marchesini et al. [2006]. Particulars: highest concentration tested 10 µM; ref Marchesini et al. [2006]; cited from earlier work.

Where two headings read alike, the source gives them in different places.

By IC50 is commonly meant the concentration that gives 50% inhibition. As usually defined, the Ki is a dissociation constant, usually derived from enzyme kinetics or from competition with a known ligand. The IC20 is the concentration at which the effect reaches the 20% level.

Regarding `O=C(O)C(F)(F)C(F)(F)C(F)(F)C(F)(F)C(F)(F)C(F)(F)C(F)(F)F` [PFOA, perfluorooctanoic acid], the “inhibition of the FITC-T4 binding to TBG (in words)” value in assay [1] (5 nM FITC-T4, 10 nM TBG, RT) is on record as “No (or only limited) inhibition”. Besides, the “T4EQ concentration (TTR binding)” value at Human TTR [2] turned out to be 1.26 nM. Also, the IC50 on Human TTR [2] (TTR IC50, 110 nM FITC-T4, 30 nM TTR, RT, 15 min, average [95% CI]) was found to be 763 nM; on Human TTR [2] (TTR IC50 [95% CI], 55 nM FITC-T4, 30 nM TTR, RT (5 min)), 500 nM; on Human TTR [2] (TTR IC50 [95% CI], 55 nM FITC-T4, 30 nM TTR, RT (15 min)), 496 nM; at Human TTR [2] (TTR IC50 [95% CI], 55 nM FITC-T4, 30 nM TTR, RT (60 min)), 459 nM; at Human TTR [2] (TTR IC50 [95% CI], 55 nM FITC-T4, 30 nM TTR, RT (120 min)), 460 nM; at Human TTR [2] (TTR IC50 [95% CI], 55 nM FITC-T4, 30 nM TTR, on ice (120 min)), 461 nM. Moreover, the Ki at Human TTR [2] (TTR Ki [95% CI], 55 nM FITC-T4, 30 nM TTR, RT (5 min)) is 268 nM; at Human TTR [2] (TTR Ki [95% CI], 55 nM FITC-T4, 30 nM TTR, RT (15 min)), 280 nM; at Human TTR [2] (TTR Ki [95% CI], 55 nM FITC-T4, 30 nM TTR, RT (60 min)), 304 nM; at Human TTR [2] (TTR Ki [95% CI], 55 nM FITC-T4, 30 nM TTR, on ice (120 min)), 353 nM; at Human TTR [2] (TTR Ki, 110 nM FITC-T4, 30 nM TTR, RT, 15 min, derived from IC20, average [95% CI]), 568 nM; at Human TTR [3], 1100 nM. In addition, on TTR [4], the Ki was 60 nM. Also, the “Contribution to T4EQ concentration (TTR binding)” value on Human TTR [2] is 6.6%. Also, the IC20 on Human TTR [2] was found to be 267 nM.
For the molecule `CC(C)(c1ccc(O)cc1)c1ccc(O)cc1` [BPA, bisphenol-A], the Ki was 16800 nM in assay [1] (5 nM FITC-T4, 10 nM TBG, RT, 15 min, derived from IC20, descriptive model (Graphpad), average [95% CI], read-out: TBG Ki); 18400 nM in assay [1] (5 nM FITC-T4, 10 nM TBG, RT, theoretical model in R, average [95% CI], read-out: TBG Ki values, theoretical model); 32100 nM at Human TTR [2] (110 nM FITC-T4, 30 nM TTR, RT, 15 min, derived from IC20, average [95% CI], read-out: TTR Ki); 1700 nM at TBG [5]; 3230 nM on TTR [6]. Moreover, the IC50 in assay [1] (5 nM FITC-T4, 10 nM TBG, RT, 15 min, descriptive model (Graphpad), average [95% CI]) was 172000 nM; on Human TTR [2] (110 nM FITC-T4, 30 nM TTR, RT, 15 min, average [95% CI], read-out: TTR IC50), 63100 nM. Moreover, the IC20 in assay [1] (5 nM FITC-T4, 10 nM TBG, RT, 15 min, descriptive model (Graphpad), average [95% CI], read-out: TBG IC20) turned out to be 32600 nM; in assay [1] (5 nM FITC-T4, 10 nM TBG, RT, theoretical model in R, average [95% CI], read-out: TBG IC20, theoretical model) it was 35700 nM; on Human TTR [2] (110 nM FITC-T4, 30 nM TTR, RT, 15 min, average [95% CI]), 14700 nM. Besides, in assay [1] (T4-REPi = IC20(T4)/IC20(i)), the “Relative potency compared to T4 (T4-REP), TBG-binding assay” value was 0.0003. Moreover, the “T4EQ concentration (TBG binding)” value in assay [1] (T4EQi = highest human blood concentration x T4-REPi) was determined as 0.023 nM. Besides, the “Contribution to T4EQ concentration (TBG binding)” value in assay [1] (mixture of highest human blood concentrations of TBBPA, triclosan and BPA) turned out to be 1.1%. Besides, at Human TTR [2] (T4-REPi = IC20(T4)/IC20(i)), the “Relative potency compared to T4 (T4-REP), TTR-binding assay” value is recorded as 0.002. Also, at Human TTR [2], the “T4EQ concentration (TTR binding)” value amounted to 0.16 nM. Besides, the “Contribution to T4EQ concentration (TTR binding)” value on Human TTR [2] stood at 0.8%. Moreover, the “competitive binding to TBG (in words)” value in the assay with TBG [7] is listed as “no competitive binding”. Besides, the “competitive binding to TTR (in words)” value with Recombinant TTR is “no competitive binding”.
